{"source": "patent US6825206B1", "about": "(priority 2000, dated 2004)", "key": {"[1]": {"tested_on": "U937 leukemia cell line", "assay": "toxicity against U937 leukemia cell line", "assay_type": "cell-based, human", "source_text": "Untreated P388 WT (wild type) cells show dark wells where cells are viable."}, "[2]": {"target": "T1, human topI (Homo sapiens, UniProt P11387)", "T1 sequence (P11387 1-765)": "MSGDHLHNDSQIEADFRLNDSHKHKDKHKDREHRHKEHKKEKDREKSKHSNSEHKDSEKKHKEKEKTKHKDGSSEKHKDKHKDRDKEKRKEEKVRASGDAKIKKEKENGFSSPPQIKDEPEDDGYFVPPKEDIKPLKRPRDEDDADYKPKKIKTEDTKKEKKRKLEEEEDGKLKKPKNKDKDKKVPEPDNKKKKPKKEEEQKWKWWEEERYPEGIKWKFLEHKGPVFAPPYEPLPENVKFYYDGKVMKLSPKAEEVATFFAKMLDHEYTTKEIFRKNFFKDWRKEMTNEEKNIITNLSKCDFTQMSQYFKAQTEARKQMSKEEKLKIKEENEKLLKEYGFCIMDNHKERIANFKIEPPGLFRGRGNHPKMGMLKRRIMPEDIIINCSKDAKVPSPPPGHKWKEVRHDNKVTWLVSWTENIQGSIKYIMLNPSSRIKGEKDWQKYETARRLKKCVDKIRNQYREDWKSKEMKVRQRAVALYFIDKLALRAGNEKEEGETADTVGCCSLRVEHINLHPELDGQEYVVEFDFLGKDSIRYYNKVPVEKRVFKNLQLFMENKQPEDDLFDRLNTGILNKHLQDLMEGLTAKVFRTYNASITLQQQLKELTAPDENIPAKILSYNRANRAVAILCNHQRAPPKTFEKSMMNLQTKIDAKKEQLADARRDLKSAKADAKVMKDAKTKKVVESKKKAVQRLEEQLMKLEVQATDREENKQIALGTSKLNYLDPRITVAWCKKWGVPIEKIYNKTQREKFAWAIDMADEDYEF", "assay_type": "biochemical", "details": "band of nicked DNA increases with concentration; FIG. 4", "source_text": "DNA cleavage produced by human topI in pSK DNA;\nThe nicked DNA migrates to position 2 on these gels."}, "[3]": {"target": "T2, camptothecin-topo I-DNA complex (Homo sapiens, UniProt P11387)", "T2 sequence (P11387 1-765)": "T1 sequence (P11387 1-765)", "assay_type": "biochemical", "details": "after addition of NaCl; FIG. 5", "source_text": "In this assay, nicked DNA is first formed by the action of the camptothecins. Addition of NaCl perturbs the equilibrium and destabilizes the camptothecin-topo I-DNA complex. The persistence of the nicked DNA under these conditions indicates increased stability of the cleavable complex."}}, "data": [{"smiles": "CC[C@@]1(O)C(=O)OCc2c1cc1n(c2=O)Cc2c-1nc1cc3c(cc1c2CCl)OCO3", "note": "[CMMDC, 7-chloromethyl-10,11-methylenedioxy-20(S)-camptothecin]", "values": [{"measurement": "IC50", "setting": "[1]", "result": 7, "unit": "nM"}]}, {"smiles": "CC[C@@]1(O)C(=O)OCc2c1cc1n(c2=O)Cc2cc3ccccc3nc2-1", "note": "[CPT, camptothecin]", "values": [{"measurement": "induction of nicked DNA", "setting": "[2]", "result": "induce nicked DNA"}, {"measurement": "time after which nicked DNA is difficult to detect", "setting": "[3]", "result": 3, "unit": "min"}]}, {"smiles": "CC[C@@]1(O)C(=O)OCc2c1cc1n(c2=O)Cc2cc3cc4c(cc3nc2-1)OCO4", "note": "[MDC, 10,11-methylenedioxy-20(S)-camptothecin]", "values": [{"measurement": "induction of nicked DNA", "setting": "[2]", "result": "induce nicked DNA"}, {"measurement": "persistence of nicked DNA / stabilization of the cleavable complex", "setting": "[3]", "result": "show nicked DNA for longer periods of time"}]}]}
